According to ChEMBL document CHEMBL1201862, “PubChem BioAssay data set” (2004):
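Step 1: Grow cells in 96-well plates. Step 2: Expose to compound for 48 hours at 5 concentrations. Step 3: Interpolate endpoints linearly; if unreached, use highest concentration. GI50 is the concentration that inhibits growth by half.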 The source made the active and inactive calls. No stated cut-off is given here; in the data, active = GI50 up to about 1.1 µM and inactive = higher.

Tests used:
Test in all cases: NCI anticancer screen, dose series, 48 h
LXFL 529 = system: LXFL 529
MDA-MB-435 = system: MDA-MB-435
BT-549 = system: BT-549
MDA-N = system: MDA-N
T47D = system: T47D
786-0 = system: 786-0
DU-145 = system: DU-145
MDA-MB-231 = system: MDA-MB-231
PC-3 = system: PC-3

| Structure (SMILES) | GI50 (LXFL 529) | GI50 (MDA-MB-435) | GI50 (BT-549) | GI50 (MDA-N) | GI50 (T47D) | GI50 (786-0) | GI50 (DU-145) | GI50 (MDA-MB-231) | GI50 (PC-3) |
| --- | --- | --- | --- | --- | --- | --- | --- | --- | --- |
| O=C(Nc1ccc(F)cc1)C(=O)C(C(=O)c1ccccc1F)C1OC(=O)c2ccccc21 (centres undefined) | 34.8 µM (inactive) |  |  |  |  |  |  |  |  |
| Clc1ccc(N/N=C(\c2ccccc2)c2ccccn2)nc1 |  | 0.627 µM (active) | 1.85 µM (inactive) | 2.48 µM (inactive) | < 0.01 µM (active) | 0.0367 µM (active) | 0.333 µM (active) | < 0.0187 µM (active) | 0.0463 µM (active) |
| CCOCc1cc(=O)c2c(O)cc3c(c2o1)CCC(C)(C)O3 | > 100 µM (inactive) |  |  |  |  |  |  |  |  |
| CCOC(=O)C(Cc1c(-c2[nH]c3ccccc3c2CC(NC(=O)CNC(C)=O)C(=O)OCC)[nH]c2ccccc12)NC(=O)CNC(C)=O (centres undefined) |  | > 100 µM (inactive) | > 100 µM (inactive) | > 100 µM (inactive) |  |  | > 100 µM (inactive) | 16.5 µM (inactive) | > 100 µM (inactive) |
| NC(CCOCCP(=O)(O)CCOCCC(N)C(=O)O)C(=O)O (centres undefined) |  | > 100 µM (inactive) |  |  | > 100 µM (inactive) |  | > 100 µM (inactive) | > 100 µM (inactive) |  |
| COc1cc(S(=O)(=O)Nc2ccc(-c3csc(N4C(=O)C(C)SC4c4cccc(Oc5ccccc5)c4)n3)cc2)ccc1Cl (centres undefined) |  | 32.6 µM (inactive) | 26.7 µM (inactive) | 27.7 µM (inactive) | 29.6 µM (inactive) |  | 35.3 µM (inactive) |  | 43.9 µM (inactive) |
| CCOC(=O)c1nc2ccc(OC)cc2c2c1Cc1ccccc1-2 | > 100 µM (inactive) |  |  |  |  |  |  |  |  |
| OCC1C2C=CC(O2)[C@H]1CO (some centres undefined) | > 100 µM (inactive) |  |  |  |  | > 100 µM (inactive) |  |  |  |
